Assays:
mice = experiment: acute toxicity of Dimetilan alone and of synergist alone (intraperitoneal); format: in vivo, Swiss albino white male mice; conditions: synergist alone 1000 mg/kg ip, 72 hours, of eight mice
[1] = test system: German male cockroaches (Blatella Germanicus); experiment: topical application to thorax, 24 hour mortality of German male cockroaches; format: in vivo, German cockroach (Blatella Germanicus)
Description: The synergistic effect with mobam of synergist compounds I-B, II-H, II-K and IV-C is further illustrated by the 24 hour mortality data of German male cockroaches (Blatella Germanicus) shown in Table XXXX. The synergists and insecticide were diluted in acetone and applied in small droplets to the thorax of the insect. These doses of synergist alone gave zero percent insect mortality.
The synergistic effect with GS 13005 of compounds I-B, II-H, II-K, II-P, II-Q, II-R and IV-C is illustrated by the 24 hour mortality of German male cockroaches shown in Table XXXXI. These doses of synergist alone caused zero percent insect mortality.

Compound: C#CCOCc1ccc(Cl)c(Cl)c1Cl [II-D]
- number of mice dead (mice): 0

Compound: C#CCOCc1c(Cl)cccc1[N+](=O)[O-] [II-K]
- number of mice dead (mice): 1
- insect mortality, synergist alone ([1]; synergist alone at doses of Table XXXX): zero
- insect mortality, synergist alone ([1]; synergist alone at doses of Table XXXXI): zero

From patent US4020111A, “Propynyloxy alkyl arene insecticides” (priority 1975, dated 1977)
